# Source: patent US12441693B2, “Targeting STAT sumoylation to enhance immune responses” (THE GEORGE WASHINGTON UNIVERSITY, priority 2018, dated 2025)
# “Also recorded” adds a separate entry of the source. Like-named read-outs stand apart in the source and are kept apart here.
# Columns and labels:
# [1] = system: STAT1, STAT2, STAT3, STAT4, STAT5A, STAT5B, STAT6; assay: Western blot of STAT phosphorylation in 293FT HEK cells transfected with V5-tagged STATs; assay type: cell-based; conditions: 24 hours, vs DMSO
# Procedure: In general, samples are prepared and loaded on to a gel and during the electrophoresis the negatively charged proteins move toward the positively charged anode. In order to further analyze the proteins, they are transferred onto a membrane in a procedure called blotting. After the transfer, the membrane is blocked in order to prevent unwanted membrane-protein interaction in the following steps. To visualize the protein of interest the membrane is commonly first probed using a primary protein-specific antibody followed by a labeled secondary antibody used for detection. An image is taken of the membrane and the result is analyzed.
# [2] = system: polyclonally activated CD4 T cells (TCM) killed by CD8 T cells
# Source text: An in vitro model to assess the cytolytic potential of human polyclonally activated CD8 T cells was developed. This model relied on the concept of a mix-lymphocyte reaction (MLR) in which CD8 T cells recognize CD4 T cells from a different donor as foreign and induced their killing (FIG. 11A). In this model, polyclonally activated CD8 T cells were co-cultured with polyclonally activated CD4 T cells from a different donor at an effector:target ratio (E:T) of 1:1. Cell death in both CD4 and CD8 subsets was measured at different time points using a fixable viability dye.
# To test this hypothesis, polyclonally activated CD8 T cells were co-cultured with polyclonally activated CD4 T cells from a different donor to resemble a mixed-lymphocyte reaction (MLR) at an effector:target ratio (E:T) 1:1 (FIG. 15A). CD4 T cells were activated in conditions that generate central memory CD4 T cells (TCM) cells. CD4 TCM are more resistant to apoptosis than other subsets of CD4 T cells. Cell death in both CD4 and CD8 subsets was measured at 72 hours using a fixable viability dye. Specifically, polyclonally activated CD4 T cells and CD8 T cells were co-cultured and cell death was measured at 72 hours. […] Using this assay, it was tested whether HODHBt increased the cytolytic capacity of CD8 T cells in two experimental set ups.
# [3] = system: STAT5 transcriptional activity; assay: Primary cell screening assay (CD69 expression, STAT5 transcriptional activity); assay type: cell-based; conditions: primary human CD4 T cells
# Procedure: It was observed that the ability of different benzotriazole and benzotriazin derivatives to increase STAT5 phosphorylation correlated with the ability of the compounds to induce the expression of CD69 (a STAT5 target gene) (FIG. 2A) but not CD25 (FIG. 2B) in the surface of human CD4 T cells. Based on these findings, a primary cell screening assay was set up according to FIG. 2C to identify derivatives with similar activity. As an example, flow cytometry was performed to isolated activated cells (FIG. 2D), which were expanded in the presence of DMSO or a compound of interest (FIG. 2E), and screened for changes in the expression of CD69 (FIG. 2F).
# [4] = system: NK cells
# Procedure: To determine if STAT SUMOylation increases Gzm B expression in NK cells, isolated human NK cells were analyzed after a 3-day incubation with either IL-2, IL-15, HODHBt, IL-2+IL-15, HODHBt+IL-2, HODHBt+IL-15, or HODHBt+IL-2+IL-15.
# To further characterize the effects of STAT SUMOylation inhibition in NK cell function, primary human NK cells were isolated and cultured with IL-15 in the presence or absence of HODHBt. 48 hours later, cells were phenotyped by flow cytometry.
# To characterize the induction of other proteins known to be important for the cytolytic activity of NK cells, primary human NK cells were isolated from 6 male and 6 female donors and cultured with IL-15 in the presence or absence of HODHBt. 48 hours later, levels of Granzyme A (FIG. 18A), Perforin (FIG. 18B), Granulysin (FIG. 18C), TRAIL (FIG. 18D) and Fas ligand (FASL) (FIG. 18E) were analyzed by flow cytometry.
# Antibody-dependent cell-mediated cytotoxicity (ADCC) is mediated by the recognition of an antibody bound to a cell through an Fc receptor present in NK cells, mostly CD16 (FCGR3A). To address whether inhibiting STAT SUMOylation alters CD16 expression in the surface of NK cells, freshly isolated NK cells were treated with either IL-15, HODHBt or a combination of both for 48 hours and surface expression of CD16 was measured by flow cytometry.
# Since IL-15 activated STATs, it was hypothesized that STATs, and in particular STAT1, was controlling expression of CXCR5 (C—X—C Motif Chemokine Receptor 5) and that inhibiting STAT SUMOylation enhances CXCR5 expression and promotes migration towards a CXCL13 (C—X—C Motif Chemokine Ligand 13) gradient. CXCL13 controls homing of lymphocytes to follicles in lymph nodes; however whether this mechanism of regulation exists in human NK cells and whether IL-15 controls expression were unknown. To address which one of the two scenarios was potentially playing a role in the presence of NK cells within the follicles, human NK cells were treated with IL-15, HODHBt or a combination of both for 48 hours. Surface expression of CXCR5 and viability were next measured by flow cytometry.
# To phenotype the cells, 1×10^5 cells were stained with a viability dye (Fixable Viability Dye eFluor 450, Affymetrix, eBioscience, San Diego, CA) and the surface marker-specific mAb specific for human: PE-anti-CD25 (Caltag, Burlingame, CA) and PE-anti-CD69 (Caltag, Burlingame, CA) followed by flow cytometric analysis in a BD FACScanto II flow cytometer using the FACSDiva software (Becton Dickinson, Mountain View, CA) and analyzed using FlowJo (Tree Star Inc., Ashland, OR).
# [5] = system: CD8 T cells; assay: Expansion of polyclonally activated CD8 T cells with IL-2; assay type: cell-based, human; conditions: IL-2, vs DMSO/untreated
# Procedure: For these tests, human CD4 and CD8 T cells were activated in vitro and expanded with interleukin-2 (IL-2) in the presence of DMSO (control vehicle) or HODHBt. […] Some immunotherapy strategies rely on the in vitro expansion of the own patient CD4 and CD8 T cells specific against a tumoral or a viral antigen.
# To address whether SUMOylation controls STAT activation in human CD8 T cells, polyclonally activated CD8 T cells were cultured with IL-2 in the presence or absence of HODHBt and levels of phosphorylated STATs were measured by Western blot. […] Proliferation of CD8 T cells is dependent on the activation and phosphorylation of STAT5.
smiles,measurement,setting,value
O=c1c2ccccc2nnn1O [HODHBt],phosphorylation levels of STATs,[1],increased phosphorylation levels of all the other STATs
same,killing capacity of CD8 T cells expanded in the presence of compound,[2]; CD8 T cells expanded in the presence of HODHBt,higher killing capacity
same,killing capacity of CD8 T cells over TCM cells,"[2]; HODHBt added during the MLR reaction, 72 hours",increased the killing capacity of CD8 T cells over TCM cells in a dose dependent manner
same,CD8 T cell death in co-culture,[2]; human,no increase in cell death in CD8 T cells in any of the experimental conditions
same,toxicity on CD8 T cells,"[2]; human, 72 h",no overt toxicity on CD8 T cells
same,CD4 T cell death in co-culture with CD8 T cells,"[2]; time course, fixable viability dye",detected only in the co-culture treated with HODHBt at 72 hours and 96 hours
same,STAT5 transcriptional activity relative to HODHBt,[3],the compound with the strongest activity
same,EC50,[3]; read-out: EC50 in the primary cell screening method,~63 µM
same,Gzm B expression in NK cells (percentage of cells and MFI),"[4]; 3-day incubation, with IL-2, IL-15 or both","increased Gzm B expression in NK cells treated with IL-2, IL-15 or a combination of both"
same,surface expression of CD16 on NK cells,"[4]; 48 hours, with or without IL-15",sufficient to increase the levels of CD16 expression in NK cells independent of the presence of IL-15
same,surface expression of CXCR5 on NK cells,"[4]; IL-15 in the presence of HODHBt, 48 hours",dramatically increased in the presence of HODHBt
same,expression of GZMB in NK cells,"[4]; combination of IL-15 and HODHBt, 48 hours",greatly increased the expression of GZMB
same,"expression of Granzyme A, Perforin, Granulysin, TRAIL and FASL in NK cells","[4]; combination of IL-15 and HODHBt, vs IL-15 control, 48 hours",enhanced gene expression above IL-15 control
same,viability / survival of NK cells,"[4]; human, 48 h",did not affect the viability of NK cells either alone or in combination with IL-15
same,surface expression of CD69 and CD25 on NK cells,"[4]; in combination with IL-15, vs IL-15 alone, 48 hours",enhanced the expression of both surface markers over IL-15 alone
same,surface expression of CD25 on NK cells,"[4]; single agent, 48 hours",did not change the surface expression
same,surface expression of CD69 on NK cells,"[4]; single agent, 48 hours",did not change the surface expression of CD69
same,expression of GZMB in NK cells,"[4]; single agent, vs media control, 48 hours",did not have any effect over media control
same,expansion of CD8 T cells,[5],increased expansion; also recorded: enhanced the expansion of polyclonally activated CD8 T in 5 human donors
